Details: for specific volume: Gas, isochoric method; for mass density: Liquid, Vibrating tube method

F/C=C(\F)C(F)(F)F [(Z)-1,2,3,3,3-pentafluoro-1-propene]
Details	mass density [kg/m3]	specific volume [m3/kg]
263.15 K, 135.2 kPa	–	0.115
268.15 K, 138.3 kPa	–	0.115
273.14 K, 141.3 kPa	–	0.116
273.15 K, 202.4 kPa	–	0.079
278.15 K, 144.3 kPa	–	0.116
278.15 K, 207 kPa	–	0.079
282.83 K, 301.1 kPa	–	0.054
283.14 K, 12501 kPa	1378.7	–
283.15 K, 211.5 kPa	–	0.079
283.15 K, 510 kPa	1329.6	–
283.15 K, 604 kPa	1330.1	–
283.15 K, 1003 kPa	1332	–
283.15 K, 1499 kPa	1334.5	–
283.15 K, 1997 kPa	1336.8	–
283.15 K, 2500 kPa	1339.1	–
283.15 K, 5000 kPa	1350.2	–
283.15 K, 7499 kPa	1360.3	–
283.15 K, 9998 kPa	1369.8	–
283.15 K, 15001 kPa	1387	–
283.15 K, 17501 kPa	1395	–
283.15 K, 20001 kPa	1402.5	–
283.15 K, 22497 kPa	1409.9	–
283.15 K, 25000 kPa	1417	–
283.16 K, 147.3 kPa	–	0.116
283.16 K, 27503 kPa	1423.9	–
283.16 K, 29999 kPa	1430.3	–
283.16 K, 32498 kPa	1436.2	–
283.16 K, 35004 kPa	1442.4	–
287.91 K, 307.5 kPa	–	0.054
288.15 K, 150.2 kPa	–	0.116
288.15 K, 215.6 kPa	–	0.079
292.78 K, 314.1 kPa	–	0.054
293.15 K, 152.7 kPa	–	0.116
293.15 K, 220 kPa	–	0.079
293.15 K, 470 kPa	1293.2	–
293.15 K, 598 kPa	1293.9	–
293.15 K, 1000 kPa	1296.2	–
293.15 K, 1500 kPa	1299.1	–
293.15 K, 2000 kPa	1301.9	–
293.15 K, 2500 kPa	1304.6	–
293.15 K, 5000 kPa	1317.4	–
293.15 K, 7500 kPa	1329	–
293.15 K, 10001 kPa	1339.8	–
293.15 K, 12500 kPa	1349.7	–
293.15 K, 14999 kPa	1359	–
293.15 K, 17500 kPa	1367.8	–
293.15 K, 20000 kPa	1376	–
293.15 K, 22500 kPa	1383.9	–
293.15 K, 25000 kPa	1391.4	–
293.15 K, 27499 kPa	1398.5	–
293.15 K, 30000 kPa	1405.4	–
293.15 K, 32500 kPa	1412	–
293.15 K, 34999 kPa	1418.5	–
297.14 K, 418.9 kPa	–	0.04
298.15 K, 155.7 kPa	–	0.116
298.15 K, 224.3 kPa	–	0.079
298.15 K, 498.5 kPa	–	0.032
298.47 K, 320.7 kPa	–	0.054
303.14 K, 327 kPa	–	0.054
303.14 K, 510.2 kPa	–	0.032
303.15 K, 158.7 kPa	–	0.116
303.15 K, 228.2 kPa	–	0.079
303.15 K, 430 kPa	–	0.04
303.15 K, 700 kPa	1255.3	–
303.15 K, 1000 kPa	1257.4	–
303.15 K, 1500 kPa	1260.9	–
303.15 K, 2000 kPa	1264.3	–
303.15 K, 7500 kPa	1296.6	–
303.15 K, 9999 kPa	1308.8	–
303.15 K, 12500 kPa	1320.1	–
303.15 K, 20000 kPa	1349.2	–
303.15 K, 22501 kPa	1357.8	–
303.15 K, 24999 kPa	1366	–
303.15 K, 27500 kPa	1374.4	–
303.16 K, 2499 kPa	1267.8	–
303.16 K, 5000 kPa	1283.2	–
303.16 K, 14996 kPa	1330.5	–
303.16 K, 17500 kPa	1340.2	–
303.16 K, 30000 kPa	1381.8	–
303.16 K, 32500 kPa	1388.8	–
303.16 K, 35000 kPa	1395.6	–
308.12 K, 522.1 kPa	–	0.032
308.14 K, 161.7 kPa	–	0.116
308.14 K, 612.3 kPa	–	0.027
308.15 K, 232.8 kPa	–	0.079
308.15 K, 333.9 kPa	–	0.054
308.15 K, 439 kPa	–	0.04
312.86 K, 236.9 kPa	–	0.079
313.13 K, 533.4 kPa	–	0.032
313.14 K, 627 kPa	–	0.027
313.14 K, 7500 kPa	1262.1	–
313.14 K, 10000 kPa	1276.1	–
313.15 K, 164.2 kPa	–	0.116
313.15 K, 447.9 kPa	–	0.04
313.15 K, 1000 kPa	1216.2	–
313.15 K, 1500 kPa	1220.4	–
313.15 K, 2008 kPa	1224.6	–
313.15 K, 5000 kPa	1246.4	–
313.15 K, 12501 kPa	1288.9	–
313.15 K, 15000 kPa	1300.5	–
313.15 K, 17497 kPa	1311.3	–
313.15 K, 20000 kPa	1321.4	–
313.15 K, 22500 kPa	1330.8	–
313.15 K, 25000 kPa	1339.7	–
313.15 K, 27500 kPa	1348.1	–
313.15 K, 30001 kPa	1356.1	–
313.15 K, 32500 kPa	1363.7	–
313.15 K, 35000 kPa	1371	–
313.16 K, 340.4 kPa	–	0.054
313.16 K, 2501 kPa	1228.3	–
318.14 K, 346.9 kPa	–	0.054
318.14 K, 641.3 kPa	–	0.027
318.15 K, 166.8 kPa	–	0.116
318.15 K, 241.3 kPa	–	0.079
318.15 K, 457 kPa	–	0.04
318.23 K, 544.9 kPa	–	0.033
323.14 K, 353.4 kPa	–	0.054
323.14 K, 555.9 kPa	–	0.033
323.14 K, 655.2 kPa	–	0.027

— the NIST ThermoML archive (doi:10.1021/acs.jced.5b00562)
